Experimental data reported in patent US10136647B2, “Synergistic Bacillus thuringiensis subsp. kurstaki and chlorantraniliprole mixtures for diamondback moth, beet armyworm, sugarcane borer, soybean looper and corn earworm control” (priority 2015, dated 2018).
Like-named read-outs stand apart in the source and are kept apart here.

Experiments:
[1] = tested on: diamondback moth larvae; test: Laboratory leaf dip test on diamondback moth larvae; format: in vivo; settings: Plutella xylostella, foliar, 24 h after treatment, Btk 0.54 ppm, chlorantraniliprole 0.0009 ppm, read-out: % Efficacy
Method: The following examples illustrate the synergy of Bacillus thuringiensis subsp. kurstaki and chlorantraniliprole when controlling diamondback moth, beet armyworm, sugarcane borer, soybean looper, and corn earworm. DiPel® DF was used as the source of Bacillus thuringiensis subsp. kurstaki and Coragen® was used as the source of chlorantraniliprole. The present invention is not limited to the products or formulation types used herein. In each example below, the studies were conducted as follows.
For these tests, standardized laboratory leaf dip methods were used to inoculate plant material with treatment(s). Dry, treated leaves were placed into Petri dishes (100×25 mm) containing filter paper wetted with 500 μl of distilled H2O (“dH2O”). […] Synergy ratings were calculated for each test. […]
% Cexp=A+B−(AB/100), where % Cexp is the expected efficacy and “in which A and B are the control levels given by the single [insecticides]. […] Adopting a conservative approach, Applicant determined synergy to be present at ratios of >1.15. […]
In order to determine synergy, rates below normal field rate ranges must be used. If normal field rate ranges are used, all of the larvae would die (combining a lethal or near lethal dose of Bacillus thuringiensis subsp. kurstaki with a lethal dose of chlorantraniliprole would most likely lead to larvae death) in every treatment and synergy would not be able to be determined. […]

[2] = tested on: beet armyworm larvae; test: Laboratory leaf dip test on beet armyworm larvae; format: in vivo; settings: Spodoptera exigua, foliar, Btk 0.54 ppm, chlorantraniliprole 0.0009 ppm, read-out: % Efficacy
Method: (§1) DiPel® DF was used as the source of Bacillus thuringiensis subsp. kurstaki and Coragen® was used as the source of chlorantraniliprole. The present invention is not limited to the products or formulation types used herein. In each example below, the studies were conducted as follows.
(§2) For these tests, standardized laboratory leaf dip methods were used to inoculate plant material with treatment(s). Dry, treated leaves were placed into Petri dishes (100×25 mm) containing filter paper wetted with 500 μl of distilled H2O (“dH2O”). Each dish was then infested with between 5 and 10 larvae, dependent on species. Efficacy ratings were taken at specified intervals. Synergy ratings were calculated for each test.
(§3) % Cexp=A+B−(AB/100), where % Cexp is the expected efficacy and “in which A and B are the control levels given by the single [insecticides]. If the ratio between the experimentally observed efficacy of the mixture Cobs and the expected efficacy of the mixture is greater than 1, synergistic interactions are present in the mixture.” (Gisi, Synergisitic Interaction of Fungicides in Mixtures, The American Phytopathological Society, 86:11, 1273-1279,1996). Adopting a conservative approach, Applicant determined synergy to be present at ratios of >1.15.

[3] = tested on: cabbage looper larvae; test: Laboratory leaf dip test on cabbage looper larvae; format: in vivo; settings: Trichoplusia ni, foliar, Btk 0.54 ppm, chlorantraniliprole 0.0009 ppm, read-out: % Efficacy
Method: as §1, §2, §3

[4] = tested on: sugarcane borer larvae; test: Laboratory leaf dip test on sugarcane borer larvae; format: in vivo; settings: Diatraea saccharalis, foliar, Btk 0.54 ppm, chlorantraniliprole 0.0009 ppm, read-out: % Efficacy
Method: as §1, §2, §3

[5] = tested on: southwestern corn borer larvae; test: Laboratory leaf dip test on southwestern corn borer larvae; format: in vivo; settings: foliar, 72 h after treatment, Btk 0.54 ppm, chlorantraniliprole 0.0009 ppm, read-out: % Efficacy
Method: as §1, §2, §3

[6] = tested on: soybean looper larvae; test: Laboratory leaf dip test on soybean looper larvae; format: in vivo, Chrysodeixis includens; settings: foliar, Btk 0.54 ppm, chlorantraniliprole 0.045 μg/ml, read-out: % Efficacy
Method: as §1, §2, §3
In this study, the response of soybean looper larvae to Bacillus thuringiensis subsp. kurstaki and chlorantraniliprole was observed.
For this species, the same ppm of Bacillus thuringiensis subsp. kurstaki was used, but 0.045 μg/ml was used for chlorantraniliprole.

[7] = tested on: corn earworm larvae; test: Laboratory leaf dip test on corn earworm larvae; format: in vivo; settings: Helicoverpa zea, foliar, Btk 0.54 ppm, chlorantraniliprole 0.0009 ppm, read-out: % Efficacy
Method: as §1, §2, §3

CNC(=O)c1cc(Cl)cc(C)c1NC(=O)c1cc(Br)nn1-c1ncccc1Cl [Chlorantraniliprole]
Emax at 0.0009 ppm [1]: 12%
Emax at 0.0009 ppm ([2]; 24 h after treatment): 7%
Emax at 0.0009 ppm ([2]; 48 h after treatment): 17%
Emax at 0.0009 ppm ([2]; 72 h after treatment): 30%
Emax at 0.0009 ppm ([3]; 24 h after treatment): 46%
Emax at 0.0009 ppm ([3]; 48 h after treatment): 46%
Emax at 0.0009 ppm ([4]; 24 h after treatment): 10%
Emax at 0.0009 ppm ([4]; 48 h after treatment): 10%
Emax at 0.0009 ppm ([4]; 72 h after treatment): 19%
Emax at 0.0009 ppm [5]: 31%
Emax at 0.045 µg/mL ([6]; 24 h after treatment): 7%
Emax at 0.045 µg/mL ([6]; 48 h after treatment): 10%
Emax at 0.045 µg/mL ([6]; 72 h after treatment): 17%
Emax at 0.0009 ppm ([7]; 24 h after treatment): 7%
Emax at 0.0009 ppm ([7]; 48 h after treatment): 20%
Emax at 0.0009 ppm ([7]; 72 h after treatment): 20%
